In US10526316B2, “Quinoxaline and pyridopyrazine derivatives as PI3Kβ inhibitors” (Janssen Pharmaceutica NV, priority 2015, dated 2020):
Like-named read-outs stand apart in the source and are kept apart here.

What was measured:
[1] = target: T1, PI3Kδ (Homo sapiens, UniProt O00329); test: Enzyme binding assay (KINOMEscan, DiscoveRx); details: PIK3Cδ_h
T1 construct: purchased DiscoveRx Corporation, San Diego (contract service, KINOMEscan)
T1 sequence (O00329 1-1044): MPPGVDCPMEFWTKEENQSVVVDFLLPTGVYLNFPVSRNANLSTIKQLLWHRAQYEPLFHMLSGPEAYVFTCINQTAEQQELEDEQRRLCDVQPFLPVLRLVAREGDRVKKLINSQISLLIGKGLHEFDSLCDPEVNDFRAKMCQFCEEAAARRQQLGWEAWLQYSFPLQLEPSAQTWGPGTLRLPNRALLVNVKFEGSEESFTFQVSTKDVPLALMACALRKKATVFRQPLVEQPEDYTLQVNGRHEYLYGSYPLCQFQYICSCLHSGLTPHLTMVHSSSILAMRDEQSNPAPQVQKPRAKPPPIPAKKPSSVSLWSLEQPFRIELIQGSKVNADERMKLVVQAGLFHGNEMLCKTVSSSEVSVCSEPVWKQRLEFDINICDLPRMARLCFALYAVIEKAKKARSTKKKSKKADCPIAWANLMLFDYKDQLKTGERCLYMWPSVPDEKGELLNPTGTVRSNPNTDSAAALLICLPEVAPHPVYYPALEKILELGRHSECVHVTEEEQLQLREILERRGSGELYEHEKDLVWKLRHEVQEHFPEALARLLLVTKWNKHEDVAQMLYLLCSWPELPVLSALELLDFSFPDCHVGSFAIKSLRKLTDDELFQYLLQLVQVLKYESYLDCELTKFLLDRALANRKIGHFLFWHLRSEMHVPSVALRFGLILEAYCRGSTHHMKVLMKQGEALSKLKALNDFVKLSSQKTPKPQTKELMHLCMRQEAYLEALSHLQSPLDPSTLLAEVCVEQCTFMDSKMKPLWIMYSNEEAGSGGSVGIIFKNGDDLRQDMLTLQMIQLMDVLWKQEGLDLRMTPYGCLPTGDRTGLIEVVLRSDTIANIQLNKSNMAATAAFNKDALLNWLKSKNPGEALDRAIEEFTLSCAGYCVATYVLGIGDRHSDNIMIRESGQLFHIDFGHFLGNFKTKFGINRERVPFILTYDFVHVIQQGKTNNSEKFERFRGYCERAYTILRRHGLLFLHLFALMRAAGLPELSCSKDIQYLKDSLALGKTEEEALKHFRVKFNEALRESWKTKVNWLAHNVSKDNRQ
In short: (§1)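 Affinity for each kinase was determined by KINOMEscan profiling.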

[2] = test system: Akt phosphorylated at Thr308 in PC-3 cells; test: Cellular assay: phosphorylation of Akt at Thr308 in PC-3 cells (MSD ELISA); assay type: cell-based; details: PC-3 cells, 60 min compound incubation, MSD ELISA, read-out: IC50 pAkt_Thr308
In short: (§2)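 PC-3 cells were exposed to compound or 0.3% DMSO for 60 min at 37° C, 5% CO2, then lysed in ice-cold buffer. Phospho-Akt was captured on site-specific antibody-coated plates and detected with Sulfo-tag anti-total Akt by electrochemiluminescence. IC50 values came from five-concentration response curves.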

[3] = target: T2, kinase enzymes (Homo sapiens, UniProt P48736); test: Enzyme binding assay (KINOMEscan, DiscoveRx), further kinases of Table A; details: PIK3Cγ_h
T2 construct: purchased DiscoveRx Corporation, San Diego (contract service, KINOMEscan)
T2 sequence (P48736 whole entry): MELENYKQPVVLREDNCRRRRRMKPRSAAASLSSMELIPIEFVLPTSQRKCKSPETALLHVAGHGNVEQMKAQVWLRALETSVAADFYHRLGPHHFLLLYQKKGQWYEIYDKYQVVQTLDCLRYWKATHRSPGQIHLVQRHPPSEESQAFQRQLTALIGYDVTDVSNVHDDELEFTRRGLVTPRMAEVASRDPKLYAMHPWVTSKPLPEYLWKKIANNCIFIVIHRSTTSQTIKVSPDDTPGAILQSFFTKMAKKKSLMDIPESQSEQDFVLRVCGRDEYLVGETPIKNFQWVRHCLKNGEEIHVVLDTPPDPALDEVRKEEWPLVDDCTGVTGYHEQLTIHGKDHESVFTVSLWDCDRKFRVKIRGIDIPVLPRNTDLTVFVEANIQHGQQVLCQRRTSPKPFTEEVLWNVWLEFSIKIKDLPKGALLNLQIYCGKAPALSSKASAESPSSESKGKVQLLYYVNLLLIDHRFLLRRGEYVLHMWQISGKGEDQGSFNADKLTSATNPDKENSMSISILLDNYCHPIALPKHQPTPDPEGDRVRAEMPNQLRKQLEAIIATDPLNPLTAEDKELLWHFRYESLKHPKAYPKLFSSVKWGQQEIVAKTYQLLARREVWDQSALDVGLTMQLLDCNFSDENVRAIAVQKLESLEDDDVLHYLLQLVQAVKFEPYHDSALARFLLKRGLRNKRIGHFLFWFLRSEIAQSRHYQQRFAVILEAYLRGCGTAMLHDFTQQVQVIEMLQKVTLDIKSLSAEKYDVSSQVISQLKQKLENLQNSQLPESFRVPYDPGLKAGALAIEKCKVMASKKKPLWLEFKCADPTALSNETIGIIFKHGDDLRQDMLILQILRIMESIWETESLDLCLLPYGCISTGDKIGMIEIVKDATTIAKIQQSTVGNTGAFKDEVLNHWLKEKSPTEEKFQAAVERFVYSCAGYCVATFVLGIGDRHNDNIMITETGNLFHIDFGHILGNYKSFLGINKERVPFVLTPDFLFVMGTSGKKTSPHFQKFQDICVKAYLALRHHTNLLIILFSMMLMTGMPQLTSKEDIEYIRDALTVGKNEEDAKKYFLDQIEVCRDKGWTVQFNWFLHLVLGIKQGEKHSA
In short: as §1

[4] = target: T3, kinase enzymes (Homo sapiens, UniProt P42336); test: as above; details: PIK3Cα_h
T3 construct: purchased DiscoveRx Corporation, San Diego (contract service, KINOMEscan)
T3 sequence (P42336 whole entry): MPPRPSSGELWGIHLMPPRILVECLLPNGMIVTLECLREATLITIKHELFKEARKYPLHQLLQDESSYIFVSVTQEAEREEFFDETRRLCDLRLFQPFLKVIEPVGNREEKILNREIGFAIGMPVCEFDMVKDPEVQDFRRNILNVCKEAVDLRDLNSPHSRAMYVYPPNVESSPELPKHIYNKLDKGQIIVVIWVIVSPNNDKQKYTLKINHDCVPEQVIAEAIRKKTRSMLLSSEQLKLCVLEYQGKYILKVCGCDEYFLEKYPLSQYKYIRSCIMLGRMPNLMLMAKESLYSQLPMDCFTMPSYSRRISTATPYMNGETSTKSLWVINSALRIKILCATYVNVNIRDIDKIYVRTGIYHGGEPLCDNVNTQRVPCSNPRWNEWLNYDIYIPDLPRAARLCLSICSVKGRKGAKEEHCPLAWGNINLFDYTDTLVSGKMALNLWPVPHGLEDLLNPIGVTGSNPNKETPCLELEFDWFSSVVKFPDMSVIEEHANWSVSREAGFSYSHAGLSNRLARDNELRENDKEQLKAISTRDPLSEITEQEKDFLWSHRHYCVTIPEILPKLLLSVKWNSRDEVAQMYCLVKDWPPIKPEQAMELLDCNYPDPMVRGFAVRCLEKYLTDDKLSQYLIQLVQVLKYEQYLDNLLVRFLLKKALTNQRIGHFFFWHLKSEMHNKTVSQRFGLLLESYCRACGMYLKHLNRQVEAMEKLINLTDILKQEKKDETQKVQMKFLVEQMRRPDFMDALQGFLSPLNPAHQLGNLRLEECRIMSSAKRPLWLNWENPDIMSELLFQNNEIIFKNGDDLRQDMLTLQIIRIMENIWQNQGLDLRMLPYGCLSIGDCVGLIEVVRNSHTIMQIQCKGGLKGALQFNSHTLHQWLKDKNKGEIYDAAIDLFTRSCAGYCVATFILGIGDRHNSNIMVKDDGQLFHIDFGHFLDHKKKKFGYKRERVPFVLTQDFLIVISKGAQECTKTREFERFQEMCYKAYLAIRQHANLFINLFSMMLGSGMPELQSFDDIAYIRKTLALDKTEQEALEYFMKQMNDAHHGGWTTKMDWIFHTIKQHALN
In short: as §1

[5] = target: T4, kinase enzymes (Homo sapiens, UniProt P42345); test: as above; details: MTOR_h
T4 construct: purchased DiscoveRx Corporation, San Diego (contract service, KINOMEscan)
In short: as §1

[6] = target: T5, PI3Kβ (Homo sapiens, UniProt P42338); test: Enzyme binding assay (KINOMEscan, DiscoveRx); details: PIK3Cβ_h, read-out: Kd PIK3Cβ_h
T5 construct: purchased DiscoveRx Corporation, San Diego (contract service, KINOMEscan)
T5 sequence (P42338 whole entry): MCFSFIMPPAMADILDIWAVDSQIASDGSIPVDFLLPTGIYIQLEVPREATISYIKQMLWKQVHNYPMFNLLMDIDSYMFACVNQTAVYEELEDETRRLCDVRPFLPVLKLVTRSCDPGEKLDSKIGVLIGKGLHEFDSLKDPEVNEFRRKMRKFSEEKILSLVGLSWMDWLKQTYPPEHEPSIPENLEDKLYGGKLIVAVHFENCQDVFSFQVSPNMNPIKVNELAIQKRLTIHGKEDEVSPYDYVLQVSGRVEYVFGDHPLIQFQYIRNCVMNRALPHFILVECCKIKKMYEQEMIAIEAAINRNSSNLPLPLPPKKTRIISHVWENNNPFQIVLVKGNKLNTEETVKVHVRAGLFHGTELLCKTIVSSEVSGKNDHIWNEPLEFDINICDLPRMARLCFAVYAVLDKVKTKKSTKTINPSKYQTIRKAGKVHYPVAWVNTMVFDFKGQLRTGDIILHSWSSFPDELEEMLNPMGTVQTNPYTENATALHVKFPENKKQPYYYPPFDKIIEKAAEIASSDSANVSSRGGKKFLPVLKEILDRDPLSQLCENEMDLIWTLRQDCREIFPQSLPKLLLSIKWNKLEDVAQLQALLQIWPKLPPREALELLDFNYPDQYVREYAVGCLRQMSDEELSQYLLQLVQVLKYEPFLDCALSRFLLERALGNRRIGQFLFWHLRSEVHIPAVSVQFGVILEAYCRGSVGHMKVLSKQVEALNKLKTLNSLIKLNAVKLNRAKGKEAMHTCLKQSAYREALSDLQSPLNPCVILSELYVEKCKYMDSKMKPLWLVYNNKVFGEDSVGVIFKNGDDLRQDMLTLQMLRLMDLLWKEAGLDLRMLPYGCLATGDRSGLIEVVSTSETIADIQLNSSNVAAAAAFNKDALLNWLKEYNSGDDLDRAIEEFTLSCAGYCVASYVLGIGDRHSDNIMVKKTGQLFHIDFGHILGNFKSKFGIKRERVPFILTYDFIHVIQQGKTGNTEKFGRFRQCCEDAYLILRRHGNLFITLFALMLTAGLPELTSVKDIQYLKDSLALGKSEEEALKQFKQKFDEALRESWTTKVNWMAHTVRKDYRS
In short: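 Values are Kd in nM, the binding constant of each inhibitor for the kinase, obtained from a KINOMEscan enzyme binding assay.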

[7] = test system: Akt phosphorylated at Ser473 in PC-3 cells; test: Cellular assay: phosphorylation of Akt at Ser473 in PC-3 cells (MSD ELISA); assay type: cell-based; details: PC-3 cells, 60 min compound incubation, MSD ELISA, read-out: IC50 pAkt_S473
In short: as §2

Structure (SMILES)	Kd [1]	IC50 [2]	Kd [3]	Kd [4]	Kd [5]	Kd [6]	IC50 [7]	IC50 ([2]; Homo sapiens, PC-3, 1 h)	IC50 ([7]; Homo sapiens, PC-3, 1 h)
CC(Nc1cc(F)cc(F)c1)c1cc(COCCO)cc2ncc(N3CCOCC3)nc12 (single isomer, unassigned) [Compound 178]	16.6 µM	> 0.513 µM	> 30.2 µM	> 30.2 µM	> 30.2 µM	1.1 µM	> 0.513 µM		
CC(Nc1cc(F)cc(F)c1)c1cc(C2=NC(C)(C)CO2)cc2ncc(N3CCOCC3)nc12 (single isomer, unassigned) [Compound 187]	> 30.2 µM		> 30.2 µM	> 30.2 µM	> 30.2 µM	1.05 µM		> 0.513 µM	> 0.513 µM
CC(Nc1cc(F)cc(F)c1)c1cc(C(=O)NCCO)cc2ncc(N3CCOCC3)nc12 (single isomer, unassigned) [Compound 189]	28.2 µM	> 0.513 µM	4.47 µM	> 30.2 µM	> 30.2 µM	2.51 µM	> 0.513 µM		
CC(Nc1cc(F)cc(F)c1)c1cc(CN2CCO[C@H](CO)C2)cc2ncc(N3CCOCC3)nc12 (single isomer, unassigned) [Compound 194]	> 30.2 µM		> 30.2 µM	> 30.2 µM	> 30.2 µM	1.82 µM		> 0.513 µM	> 0.513 µM
CC(Nc1cc(F)cc(F)c1)c1cc(CN2CCOCC23COC3)cc2ncc(N3CCOCC3)nc12 (single isomer, unassigned) [Compound 195]	0.479 µM	0.047 µM	12.9 µM	1.95 µM	> 30.2 µM	0.002 µM	~0.102 µM		
CC(Nc1cc(F)cc(F)c1)c1cc(CN2CCO[C@H](CO)C2)cc2ncc(N3CCOCC3)nc12 (single isomer, unassigned) [Compound 196]	0.813 µM		15.8 µM	2.82 µM	> 30.2 µM	0.005 µM		0.091 µM	0.182 µM
CC(Nc1cc(F)cc(F)c1)c1cc(C(=O)NC[C@@H](C)O)cc2ncc(N3CCOCC3)nc12 (single isomer, unassigned) [Compound 202]	> 30.2 µM	> 0.513 µM	3.32 µM	> 30.2 µM	6.03 µM	3.95 µM	> 0.513 µM		
COC1CN(Cc2cc(C(C)Nc3cc(F)cc(F)c3)c3nc(N4CCOCC4)cnc3c2)CC1OC (single isomer, unassigned) [Compound 205]	17.4 µM	> 0.513 µM	> 30.2 µM	> 30.2 µM	> 30.2 µM	0.204 µM			> 0.513 µM
COC1CN(Cc2cc(C(C)Nc3cc(F)cc(F)c3)c3nc(N4CCOCC4)cnc3c2)CC1OC (single isomer, unassigned) [Compound 207]	0.891 µM	0.105 µM	16.2 µM	5.25 µM	7.94 µM	0.006 µM	0.372 µM		
CC(Nc1cc(F)cc(F)c1)c1cc(CN2C[C@@H](C)O[C@@H](C)C2)cc2ncc(N3CCOCC3)nc12 (single isomer, unassigned) [Compound 208]	1.41 µM	0.083 µM	> 30.2 µM	3.47 µM	> 30.2 µM	0.008 µM	0.186 µM		
CC(Nc1cc(F)c(F)c(F)c1)c1cc(C(=O)NCCO)cc2ncc(N3CCOCC3)nc12 (single isomer, unassigned) [Compound 214]	> 30.2 µM	> 0.513 µM	4.57 µM	> 30.2 µM	> 30.2 µM	1.23 µM	> 0.513 µM		
CC(Nc1cc(F)cc(F)c1)c1cc(C(=O)NS(=O)(=O)C2CC2)cc2ncc(N3CCOCC3)nc12 (single isomer, unassigned) [Compound 219]	0.275 µM		0.955 µM	0.093 µM	3.31 µM	0.001 µM		> 0.513 µM	> 0.513 µM
CC(Nc1cc(F)cc(F)c1)c1cc(C(=O)NS(=O)(=O)C2CC2)cc2ncc(N3CCOCC3)nc12 (single isomer, unassigned) [Compound 220]	> 30.2 µM	> 0.513 µM	25.7 µM	25.7 µM	6.46 µM	2.75 µM	> 0.513 µM		
CC(C)NCCNC(=O)c1cc(C(C)Nc2cccc(F)c2)c2nc(N3CCOCC3)cnc2c1 (single isomer, unassigned) [Compound 228]	15.5 µM	0.347 µM	4.07 µM	6.17 µM	> 30.2 µM	0.603 µM	> 0.513 µM		
O=C(NCCO)c1cc(N2CCCC2c2cc(F)cc(F)c2)c2nc(N3CCOCC3)cnc2c1 (single isomer, unassigned) [Compound 244]	4.17 µM		12.6 µM	8.32 µM	20 µM	0.741 µM		> 0.513 µM	> 0.513 µM
O=C(NCCO)c1cc(N2CCCC2c2cc(F)cc(F)c2)c2nc(N3CCOCC3)cnc2c1 (single isomer, unassigned) [Compound 245]	1.05 µM	> 0.513 µM	13.2 µM	8.71 µM	21.9 µM	0.072 µM	> 0.513 µM		
COC(=O)c1cc(C2CCCN2c2cc(F)cc(F)c2)c2nc(N3CCOCC3)cnc2c1 (single isomer, unassigned) [Compound 252]	> 30.2 µM	> 0.513 µM	> 30.2 µM	> 30.2 µM	> 30.2 µM	> 30.2 µM	> 0.513 µM		

Second part, the compound after the results:

Kd [1]	IC50 [2]	Kd [3]	Kd [4]	Kd [5]	Kd [6]	IC50 [7]	IC50 ([2]; Homo sapiens, PC-3, 1 h)	IC50 ([7]; Homo sapiens, PC-3, 1 h)	Structure (SMILES)
7.76 µM	> 0.513 µM	> 30.2 µM	8.71 µM	> 30.2 µM	0.074 µM	> 0.513 µM			CC(Nc1cc(F)cc(F)c1)c1cc(C(=O)N2CCNC(C(F)(F)F)C2)cc2ncc(N3CCOCC3)nc12 (single isomer, unassigned) [Compound 237b]
0.234 µM	0.011 µM	5.49 µM	0.372 µM	> 30.2 µM	0.004 µM	0.026 µM			CC(Nc1cc(F)cc(F)c1)c1cc(C(=O)N2CCNC(C(F)(F)F)C2)cc2ncc(N3CCOCC3)nc12 (single isomer, unassigned) [Compound 237c]
19.5 µM	> 0.513 µM	> 30.2 µM	12.6 µM	> 30.2 µM	0.24 µM	> 0.513 µM			CC(Nc1cc(F)cc(F)c1)c1cc(C(=O)N2CCNC(C(F)(F)F)C2)cc2ncc(N3CCOCC3)nc12 (single isomer, unassigned) [Compound 237d]
3.89 µM		6.76 µM	0.813 µM	26.9 µM	0.004 µM		0.024 µM	0.044 µM	CC(Nc1cc(F)cc(F)c1)c1cc(C(=O)NC[C@H](C)O)cc2ncc(N3CCOCC3)nc12 (single isomer, unassigned) [Compound 246a]
0.468 µM		3.09 µM	0.851 µM	2.82 µM	0.022 µM		> 0.513 µM	> 0.513 µM	CC(Oc1cccc(F)c1)c1cc(C(=O)O)cc2ncc(N3CCOCC3)nc12 (single isomer, unassigned) [Compound 257b]
3.02 µM	> 0.513 µM	3.16 µM	1.7 µM	1.66 µM	0.603 µM	> 0.513 µM			CC(Oc1cccc(F)c1)c1cc(C(=O)O)cc2ncc(N3CCOCC3)nc12 (single isomer, unassigned) [Compound 257c]
